Test results from patent US11319299B2, “Substituted carboxamides as inhibitors of WDR5 protein-protein binding” (PROPELLON THERAPEUTICS INC., priority 2016, dated 2022).

molecular target: WDR5 (Homo sapiens (Human), UniProt P61964); experiment: Surface Plasmon Resonance (SPR) assay, KD and residence time; type: binding; conditions: surface plasmon resonance (SPR) assay; read-out: WDR5 binding affinity (KD)

Row | SMILES | Kd
1 | CC(C)COC(=O)N1CC=C(c2cc(NC(=O)c3c[nH]c(=O)cc3C(F)(F)F)c(N3C[C@@H](C)N(C)[C@@H](C)C3)cc2F)CC1 [Example 254, 2-methylpropyl 4-[2-fluoro-5-[[6-oxo-4-(trifluoromethyl)-1H-pyridine-3-carbonyl]amino]-4-[(3R,5S)-3,4,5-trimethylpiperazin-1-yl]phenyl]-3,6-dihydro-2H-pyridine-1-carboxylate] | 3.34 nM
2 | COc1cc(C#N)c(C(=O)Nc2cc(-c3cnc(N4CCOCC4)nc3)c(F)cc2N2C[C@@H](C)N(C)[C@@H](C)C2)cn1 [Example 137, 4-cyano-N-[4-fluoro-5-(2-morpholin-4-ylpyrimidin-5-yl)-2-[(3R,5S)-3,4,5-trimethylpiperazin-1-yl]phenyl]-6-methoxypyridine-3-carboxamide] | 19.7 nM
3 | C[C@@H]1CN(c2cc(F)c(C3CCN(C(=O)CC(C)(C)C)CC3)cc2NC(=O)c2c[nH]c(=O)cc2C(F)(F)F)C[C@H](C)N1C [Example 256, N-[5-[1-(3,3-dimethylbutanoyl)piperidin-4-yl]-4-fluoro-2-[(3R,5S)-3,4,5-trimethylpiperazin-1-yl]phenyl]-6-oxo-4-(trifluoromethyl)-1H-pyridine-3-carboxamide] | 11.8 nM

More lines, now with the values ahead:

Row | Kd | SMILES
4 | 133 nM | C[C@@H]1CN(c2cc(F)c(-c3ccc(N4CCOCC4)c(F)c3)cc2NC(=O)c2c[nH]c(=O)cc2C(F)(F)F)C[C@@H](C)N1C (stereo in doubt) [Example 357, N-[4-fluoro-5-(3-fluoro-4-morpholin-4-ylphenyl)-2-[(3R,5R)-3,4,5-trimethylpiperazin-1-yl]phenyl]-6-oxo-4-(trifluoromethyl)-1H-pyridine-3-carboxamide]
5 | 0.943 nM | C[C@@H]1CN(c2cc(F)c(C3=CCN(C4COC4)CC3)cc2NC(=O)c2c[nH]c(=O)cc2C(F)(F)F)C[C@H](C)N1C [Example 235, N-[4-fluoro-5-[1-(oxetan-3-yl)-3,6-dihydro-2H-pyridin-4-yl]-2-[(3R,5S)-3,4,5-trimethylpiperazin-1-yl]phenyl]-6-oxo-4-(trifluoromethyl)-1H-pyridine-3-carboxamide]
6 | 0.23 nM | C[C@@H]1CN(c2cc(F)c(C3=CCN(Cc4ccc(N5CCN(C)CC5)cc4)CC3)cc2NC(=O)c2c[nH]c(=O)cc2C(F)(F)F)C[C@H](C)N1C [Example 166, N-[4-fluoro-5-[1-[[4-(4-methylpiperazin-1-yl)phenyl]methyl]-3,6-dihydro-2H-pyridin-4-yl]-2-[(3R,5S)-3,4,5-trimethylpiperazin-1-yl]phenyl]-6-oxo-4-(trifluoromethyl)-1H-pyridine-3-carboxamide]

same assay, conditions: surface plasmon resonance (SPR); read-out: WDR5 binding affinity (KD)

Row | Kd | SMILES
7 | 4.59 nM | C[C@@H]1CN(c2cc(F)c(-c3csc(C(=O)NCC4CC4)n3)cc2NC(=O)c2cn(C)c(=O)cc2C(F)(F)F)C[C@H](C)N1C [Example 523, N-(cyclopropylmethyl)-4-[2-fluoro-5-[[1-methyl-6-oxo-4-(trifluoromethyl)pyridine-3-carbonyl]amino]-4-[(3R,5S)-3,4,5-trimethylpiperazin-1-yl]phenyl]-1,3-thiazole-2-carboxamide]
8 | 1.03 nM | C[C@@H]1CN(c2cc(F)c(-c3csc(C(=O)N4CCN(C)CC4)n3)cc2NC(=O)c2c[nH]c(=O)cc2C(F)(F)F)C[C@H](C)N1C [Example 536, N-[4-fluoro-5-[2-(4-methylpiperazine-1-carbonyl)-1,3-thiazol-4-yl]-2-[(3R,5S)-3,4,5-trimethylpiperazin-1-yl]phenyl]-6-oxo-4-(trifluoromethyl)-1H-pyridine-3-carboxamide]
9 | 0.822 nM | CC1CN(c2ncc(-c3cc(NC(=O)c4ccc(F)cc4C(F)(F)F)c(N4C[C@@H](C)N(C)[C@@H](C)C4)cc3F)cn2)CCO1 (stereo in doubt) [Example 453, 4-fluoro-N-[4-fluoro-5-[2-[(2R)-2-methylmorpholin-4-yl]pyrimidin-5-yl]-2-[(3S,5R)-3,4,5-trimethylpiperazin-1-yl]phenyl]-2-(trifluoromethyl)benzamide]
